# Assay results from patent publication US5369112A, “Method of treating cataracts caused by active oxygen” (Mitsubishi Gas Chemical Company, Inc., priority 1991, dated 1994).
# Read-outs that look alike come from different tables or passages of the source.
# What was measured:
# [1] = system: male mice SPF-ICR; assay: Acute toxicity test (1), intraperitoneal; conditions: mouse, in vivo
# Protocol: To male mice SPF-ICR five weeks old (supplied by Japan Charles River Co.) were intraperitoneally administered PQQ·2Na, PQQ trimethyl ester, PQQ triallyl ester, OPQ, 1-methylpropyl OPQ, 2-methylthioethyl OPQ and benzyl OPQ at dosages of 40, 80, 160 and 200 mg per kg of body weight of mouce, respectively and they were bred for 14 days at 25° C. One group consisted of 8 mice. For administration, PQQ·2Na and OPQ and esters thereof were dissolved in physiological saline and PQQ trimethyl ester and PQQ triallyl ester were suspended in 1% Tween 80-containing physiological saline, respectively.
# [2] = system: male mice SPF-ICR; assay: Acute Toxicity Test (3), intraperitoneal; type: in vivo; conditions: for mice died: 8 mice per group, 14 days
# Source text: One group consisted of 8 mice.
# [3] = system: male mice SPF-ICR; assay: Acute Toxicity Test (4), oral; type: in vivo; conditions: oral 1.0, 1.5 and 2.0 g/kg, 8 mice per group, 14 days
# Protocol: To male mice SPF-ICR five weeks old (supplied by Japan Charles River Co.) was orally administered OPQ at dosages of 1.0, 1.5 and 2.0 g per kg of body weight of mouse, respectively and they were bred for 14 days at 25° C. One group consisted of 8 mice. No mice died.
# [4] = system: mice; conditions: mouse, in vivo, ip
# Protocol: One group consisted of 8 mice. For administration, PQQ·2Na and OPQ and esters thereof were dissolved in physiological saline and PQQ trimethyl ester and PQQ triallyl ester were suspended in 1% Tween 80-containing physiological saline, respectively.
# PQQ·2Na, PQQ trimethyl ester, PQQ triallyl ester and OPQ and esters thereof were intraperitoneally administered to mice and they were bred in the same manner as in the above acute toxicity test. Urine of the mice was taken every day and glucose concentration was measured using clinical examination reagent (trademark: […] 2 manufactured by Miles.Sankyo Co.).
# [5] = system: mice; assay: Kidney Toxicity Determined by Blood Examination (1); type: in vivo; conditions: for Creatinine / Glucose / Urea nitrogen: mouse serum
# Protocol: (§1) After lapse of one day from the administration, the mice were fasted (with feeding only water) and then after 18 hours, blood was collected and serum was obtained therefrom. Glucose, urea nitrogen and creatinine in the serum were examined by clinical examination reagent (trademark: FUJI DRYCHEMSLIDE manufactured by Fuji Photo Film Co., Ltd.).
# [6] = system: mice; assay: Kidney Toxicity Determined by Blood Examination (3); type: in vivo; conditions: mouse serum
# Protocol: as §1, with “Thereafter,” for “After lapse of one day from the administration,”
# [7] = Superoxide scavenging activity (hypoxanthine-xanthine oxidase, DMPO spin trapping, ESR); type: biochemical; conditions: pH 7.3, read-out: O2^- scavenging activity IC50
# Source text: Activity of PQQ esters to scavenge superoxide (O2^-) produced in the system of hypoxanthinexanthine oxidase was examined by spin trapping method [using 5,5-dimethyl-l-pyrroline-N-oxide (hereinafter referred to as "DMPO") as a spin trapping agent] where electron spin resonance (hereinafter referred to as "ESR") was used.
# Hypoxanthine+2O2 →2O2^- +uric acid (xanthine oxidase)
# The following reagents were successively put in a test tube and stirred after addition of the hypoxanthine 7 to initiate the reaction and the reaction mixture was transferred to a quartz cell used for measurement of ESR.
# Superoxide scavenging activity of OPQ and esters thereof was examined in the same manner as in Example 1.
# [8] = Hydroxy radical scavenging activity (H2O2-(Fe^2+-DTPA), DMPO spin trapping, ESR); type: biochemical; conditions: pH 7.3, read-out: .OH scavenging activity IC50
# Source text: Activity of PQQ esters to scavenge hydroxy radical (·OH) produced in the system of H2 O2 --(Fe^2+ -DTPA) was examined by spin trapping method [using 5,5-dimethyl-1-pyrroline-N-oxide (hereinafter referred to as "DMPO") as a spin trapping agent] where electron spin resonance (hereinafter referred to as "ESR") was used. DTPA means diethylenetriamine-pentaacetic acid.
# H2 O2 +Fe^2 -DTPA complex→·OH+OH^-
# The following reagents were successively put in a test tube and stirred after addition of H2 O2 6 to initiate the reaction and the reaction mixture was transferred to a quartz cell used for measurement of ESR.
# Hydroxy radical scavenging activity of OPQ and esters thereof was examined in the same manner as in Example 3.
# [9] = system: Hydrocortisone-Induced Cataract of Hen's Eggs; assay: Effect on hydrocortisone-induced cataract of hen's eggs; type: in vivo, white leghorn (hen's eggs); conditions: 1 μmole at 3, 10 and 20 h after hydrocortisone; lens at 48 h
# Protocol: Fertilized eggs of white leghorn were incubated in an incubator at a temperature of 37° C. and 70% in humidity. The day on which the incubation was started was taken to be one day old. […] eggs of 15 day old were prepared and divided into 7 groups, each of which included 5 eggs (A-G). A small hole was bored through the eggshell above air chamber of the eggs of groups B-G and 0.25 μmole (as 0.2 ml solution) of hydrocortisone sodium succinate was administered into the air chamber through the hole and then, the hole was sealed with a cellophane tape. To The eggs of groups C-G was administered 1 μmole of following compounds after 3, 10 and 20 hours from administration of hydrocortisone sodium succinate. That is, 0.2 ml of a solution of PQQ·2Na in distilled water was administered to the eggs of group C, 0.2 ml of a suspension of PQQ trimethyl ester in 1% Tween 80 solution was administered to the eggs of group D, 0.2 ml of a suspension of triallyl ester in 1% Tween 80 solution was administered to the eggs of group E, 0.2 ml of a solution of OPQ in 10 mM NaCO3 solution was administered to the eggs of group F, and 0.2 ml of a solution of methyl OPQ in 10 mM NaCO3 solution was administered to the eggs of group G.
# Crystal lens was taken out after 48 hours from administration of hydrocortisone sodium succinate and degree of cataract was judged by the criteria according to the Nishigori et al method (Nishigori et al, "Investigative Ophthalmology & Visual Science", Vol. 25, page 1051, 1984).
# 5 The whole nucleus was hazed in white.
# [10] = Acute Toxicity Test (2), intraperitoneal; type: in vivo; conditions: mouse, in vivo, ip
# Protocol: (§2) To male mice SPF-ICR five weeks old (supplied by Japan Charles River Co.) were intraperitoneally administered PQQ triallyl ester at dosages of 40, 80, 160, 200, 400 and 800 mg per kg of body weight of mouse, respectively and they were bred for 14 days at 25° C. One group consisted of 8 mice. For administration, PQQ triallyl ester was suspended in 1% Tween 80-containing physiological saline.
# [11] = system: male mice SPF-ICR; assay: Acute Toxicity Test (2), intraperitoneal; type: in vivo; conditions: 8 mice per group, 14 days
# Protocol: as §2
# [12] = not told; for Membrane permeation constant: bovine, 960 min
# Protocol: Permeability of various compounds through capsule of crystal bovine lens was examined in accordance with the method mentioned in "Crystal Lens and Biochemical Mechanism thereof" (pages 436-440) edited by Shuzo Iwata (Medical Aoi Publisher). Each compound dissolved in 10 mM HEPES buffer (containing 1% DMSO in the case of PQQ triesters) was put in an apparatus for measurement of membrane permeation constant and left to stand for 16 hours at 35° C. and then amount of the compound which migrated was measured by ultraviolet absorption (243 nm for PQQ·2Na and 255 nm for PQQ esters) to obtain membrane permeation constant.
# [13] = system: mice; assay: Kidney Toxicity Determined by Blood Examination (2); type: in vivo; conditions: for Creatinine / Glucose / Urea nitrogen: mouse serum
# Protocol: Dosages were 150, 400 and 1000 mg per kg of body weight of mouse.
# as §1, with “15” for “18”
smiles,measurement,setting,value
"O=C(O)c1cc(C(=O)O)c2c(n1)c1ncoc1c1cc(C(=O)O)[nH]c12 [OPQ, 2,8,10-tricarboxy-1-H-oxazo[5,4-h]-pyrrolo[2,3-f]quinoline]",mice died,[1],no mice died
same,mice died,[2]; i.p. 0.1-0.4 g/kg,No mice died
same,mice died,[2]; i.p. 0.8 g/kg,two mice died
same,mice died,[2]; i.p. 1.0 g/kg,three mice died
same,mice died,[2]; i.p. 1.2 g/kg,six mice died
same,LD50,"[2]; mouse, in vivo, ip, 336 h",about 1.0 g/kg-mouse
same,mice died,[3],No mice died
same,glucose in urine,[4]; 20 mg/kg,-
same,glucose in urine,[4]; 40 mg/kg,-
same,glucose in urine,[4]; 80 mg/kg,-
same,glucose in urine,[4]; 160 mg/kg,-
same,glucose in urine,[4]; 200 mg/kg,-
same,glucose in urine,[4]; 400 mg/kg,-
same,glucose in urine,[4]; 800 mg/kg,-
same,glucose in urine,[4]; 1000 mg/kg,-
same,glucose in urine,[4]; 1200 mg/kg,-
same,Creatinine,[5]; 40 mg/kg,0.70 ± 0.10 mg/dL
same,Glucose,[5]; 40 mg/kg,90 ± 18 mg/dL
same,Urea nitrogen,[5]; 40 mg/kg,25 ± 3 mg/dL
same,Creatinine,[5]; 80 mg/kg,0.80 ± 0.10 mg/dL
same,Glucose,[5]; 80 mg/kg,86 ± 10 mg/dL
same,Urea nitrogen,[5]; 80 mg/kg,23 ± 4 mg/dL
same,Creatinine,[5]; 160 mg/kg,0.73 ± 0.09 mg/dL
same,Glucose,[5]; 160 mg/kg,90 ± 23 mg/dL
same,Urea nitrogen,[5]; 160 mg/kg,27 ± 6 mg/dL
same,Creatinine,[5]; 200 mg/kg,0.81 ± 0.08 mg/dL
same,Glucose,[5]; 200 mg/kg,85 ± 24 mg/dL
same,Urea nitrogen,[5]; 200 mg/kg,28 ± 4 mg/dL
same,Creatinine,[6]; i.p. 150 mg/kg,0.75 ± 0.05 mg/dL
same,Glucose,[6]; i.p. 150 mg/kg,106 ± 21 mg/dL
same,Urea nitrogen,[6]; i.p. 150 mg/kg,32 ± 3 mg/dL
same,Creatinine,[6]; i.p. 300 mg/kg,0.78 ± 0.04 mg/dL
same,Glucose,[6]; i.p. 300 mg/kg,80 ± 15 mg/dL
same,Urea nitrogen,[6]; i.p. 300 mg/kg,29 ± 2 mg/dL
same,Creatinine,[6]; i.p. 400 mg/kg,0.78 ± 0.04 mg/dL
same,Glucose,[6]; i.p. 400 mg/kg,104 ± 18 mg/dL
same,Urea nitrogen,[6]; i.p. 400 mg/kg,29 ± 3 mg/dL
same,Creatinine,[6]; i.p. 600 mg/kg,0.78 ± 0.11 mg/dL
same,Glucose,[6]; i.p. 600 mg/kg,74 ± 11 mg/dL
same,Urea nitrogen,[6]; i.p. 600 mg/kg,32 ± 5 mg/dL
same,IC50,"[7]; Example 2, Table 7",1220 nM
same,IC50,"[8]; Example 4, Table 9",198 µM
same,"Judgement 2 (Slight opaque ring was seen in crystal lens), eggs",[9],1/5
same,"Judgement 3 (Clear ring of white haze was seen in crystal lens), eggs",[9],1/5
same,"Judgement 4 ~ 5 (white haze of pinhole size in nucleus ~ whole nucleus hazed in white), eggs",[9],3/5
C=CCOC(=O)c1cc(C(=O)OCC=C)c2c(n1)C(=O)C(=O)c1cc(C(=O)OCC=C)[nH]c1-2 [PQQ triallyl ester],mice died,[1],no mice died
same,LD50 at 336 h,[10],~500 mg/kg
same,mice died,[11]; i.p. 200 mg/kg or less,No mice died
same,mice died,[11]; i.p. 400 mg/kg,three mice died
same,mice died,[11]; i.p. 800 mg/kg,eight mice all died
same,glucose in urine,[4]; 20 mg/kg,-
same,glucose in urine,[4]; 40 mg/kg,-
same,glucose in urine,[4]; 80 mg/kg,-
same,glucose in urine,[4]; 160 mg/kg,-
same,glucose in urine,[4]; 200 mg/kg,-
same,glucose in urine,[4]; 400 mg/kg,-
same,glucose in urine,[4]; 1000 mg/kg,-
same,"contents of glucose, urea nitrogen and creatinine in serum","[5]; mice, summary of Table 3",nearly the same as those in the case of administration of no compounds
same,Creatinine,[5]; 40 mg/kg,0.3 ± 0.1 mg/dL
same,Glucose,[5]; 40 mg/kg,42 ± 6 mg/dL
same,Urea nitrogen,[5]; 40 mg/kg,11 ± 4 mg/dL
same,Creatinine,[5]; 90 mg/kg,0.2 ± 0.1 mg/dL
same,Glucose,[5]; 90 mg/kg,47 ± 15 mg/dL
same,Urea nitrogen,[5]; 90 mg/kg,12 ± 3 mg/dL
same,Creatinine,[5]; 160 mg/kg,0.1 ± 0.1 mg/dL
same,Glucose,[5]; 160 mg/kg,59 ± 16 mg/dL
same,Urea nitrogen,[5]; 160 mg/kg,10 ± 1 mg/dL
same,Creatinine,[5]; 200 mg/kg,0.1 ± 0.1 mg/dL
same,Glucose,[5]; 200 mg/kg,76 ± 6 mg/dL
same,Urea nitrogen,[5]; 200 mg/kg,9 ± 1 mg/dL
same,kidney toxicity,"[5]; mouse, in vivo",kidney toxicity was not seen
same,IC50,"[7]; Example 1, Table 6",12.4 nM
same,IC50,"[8]; Example 3, Table 8",42 µM
same,"Judgement 1 (No haze was seen in crystal lens), eggs",[9],2/5
same,"Judgement 2 (Slight opaque ring was seen in crystal lens), eggs",[9],1/5
same,"Judgement 3 (Clear ring of white haze was seen in crystal lens), eggs",[9],1/5
same,"Judgement 4 ~ 5 (white haze of pinhole size in nucleus ~ whole nucleus hazed in white), eggs",[9],1/5
same,Membrane permeation constant,[12],2.42 ± 0.60 10 ^-7 cm^2 · sec^-1
COC(=O)c1cc(C(=O)OC)c2c(n1)C(=O)C(=O)c1cc(C(=O)OC)[nH]c1-2 [PQQ trimethyl ester],mice died,[1],no mice died
same,glucose detected in urine,[4],no glucose was detected in urine
same,glucose in urine,[4]; 20 mg/kg,-
same,glucose in urine,[4]; 40 mg/kg,-
same,glucose in urine,[4]; 80 mg/kg,-
same,glucose in urine,[4]; 160 mg/kg,-
same,glucose in urine,[4]; 200 mg/kg,-
same,glucose in urine,[4]; 400 mg/kg,-
same,glucose in urine,[4]; 1000 mg/kg,-
same,Creatinine,[13]; 150 mg/kg,0.85 ± 0.08 mg/dL
same,Glucose,[13]; 150 mg/kg,154 ± 23 mg/dL
same,Urea nitrogen,[13]; 150 mg/kg,23 ± 2 mg/dL
same,Creatinine,[13]; 400 mg/kg,0.73 ± 0.05 mg/dL
same,Glucose,[13]; 400 mg/kg,117 ± 21 mg/dL
same,Urea nitrogen,[13]; 400 mg/kg,20 ± 2 mg/dL
same,Creatinine,[13]; 1000 mg/kg,0.73 ± 0.05 mg/dL
same,Glucose,[13]; 1000 mg/kg,125 ± 17 mg/dL
same,Urea nitrogen,[13]; 1000 mg/kg,17 ± 4 mg/dL
same,kidney toxicity,"[13]; mouse, in vivo, 1000 mg/kg",No kidney toxicity was recognized
same,IC50,"[7]; Example 1, Table 6",18.5 nM
same,"Judgement 1 (No haze was seen in crystal lens), eggs",[9],1/5
same,"Judgement 3 (Clear ring of white haze was seen in crystal lens), eggs",[9],1/5
same,"Judgement 4 ~ 5 (white haze of pinhole size in nucleus ~ whole nucleus hazed in white), eggs",[9],3/5
same,Membrane permeation constant,[12],1.41 ± 0.48 10 ^-7 cm^2 · sec^-1
same,membrane permeation constant relative to that of PQQ.2Na,[12],about twice
